Drawing on ChEMBL document CHEMBL3244022, “Total syntheses of (+/-)-1-carbacefoxitin and -cefamandole and (+/-)-1-oxacefamandole” (1977), this text covers MIC for 5 molecules.

In brackets after ≈: the same amount, converted by molar mass.

Assay type in all cases: functional
Assay [1] has as its system Escherichia coli. The experiment in a line: Antimicrobial activity against Escherichia coli 2884 by agar dilution method.
Assay [2] has as its system Klebsiella. The experiment in a line: Antimicrobial activity against Klebsiella 2882 by agar dilution method. (In general: In agar dilution the substance is mixed into plates at graded concentrations.)
The test system of assay [3] is Enterobacter. The experiment in a line: Antimicrobial activity against Enterobacter 2902 by agar dilution method.
The subject of assay [4] is Morganella morganii. The experiment in a line: Antimicrobial activity against Proteus morganii 2834 by agar dilution method.
Assay [5] relates to Proteus mirabilis. The experiment in a line: Antimicrobial activity against Proteus mirabilis 2830 by agar dilution method.
Assay [6] has as its system Enterobacteriaceae. The experiment in a line: Antimicrobial activity against Aerobacter 2828 by agar dilution method.
Assay [7] concerns Enterobacteriaceae. Briefly: Antimicrobial activity against Aerobacter 2826 by agar dilution method.
In assay [8] the test system is Staphylococcus aureus. Briefly: Antimicrobial activity against Staphylococcus aureus 2865 by agar dilution method.
The subject of assay [9] is Providencia. The experiment in a line: Antimicrobial activity against Providencia 2851 by agar dilution method.
Assay [10] relates to Streptococcus pyogenes. The experiment in a line: Antimicrobial activity against Streptococcus pyogenes 3124 by agar dilution method.
For assay [11], the system named is Pseudomonas. Briefly: Antimicrobial activity against Pseudomonas by agar dilution method.
The test system of assay [12] is Enterococcus. Briefly: Antimicrobial activity against Enterococcus 2862 by agar dilution method.
Assay [13] deals with Serratia. The experiment in a line: Antimicrobial activity against Serratia 2852 by agar dilution method.
Assay [14] concerns Proteus vulgaris. Briefly: Antimicrobial activity against Proteus vulgaris 2829 by agar dilution method.

The MIC is the smallest concentration in the dilution series that meets the test's criterion for growth inhibition. Higher therefore signals weaker potency. Regarding `CO[C@@]1(NC(=O)Cc2cccs2)C(=O)N2C(C(=O)O)=C(COC(N)=O)CC[C@@H]21` (racemic), the MIC in assay [1] is 12.5 µg/mL (≈ 30.5 µM); in assay [2], 6.25 µg/mL (≈ 15.3 µM); in assay [3], above 100 µg/mL; in assay [4], 6.25 µg/mL (≈ 15.3 µM); in [5], 12.5 µg/mL (≈ 30.5 µM); in assay [6], above 100 µg/mL. In addition, the MIC in [7] is 12.5 µg/mL (≈ 30.5 µM); in assay [8], 6.25 µg/mL (≈ 15.3 µM); in [9], 6.25 µg/mL (≈ 15.3 µM); in [10], 6.25 µg/mL (≈ 15.3 µM); in assay [11], above 100 µg/mL; in assay [12], above 100 µg/mL. For the same molecule, the MIC turned out to be 50 µg/mL (≈ 122 µM) in assay [13] and 6.25 µg/mL (≈ 15.3 µM) in [14].
In the case of `Cn1nnnc1SCC1=C(C(=O)O)N2C(=O)[C@@H](NC(=O)[C@H](O)c3ccccc3)[C@H]2OC1` (racemic), the MIC in assay [1] was below 0.39 µg/mL; in assay [2], 0.78 µg/mL (≈ 1.75 µM); in assay [3], 12.5 µg/mL (≈ 28 µM); in assay [4] it was 1.28 µg/mL (≈ 2.87 µM); in assay [5], 100 µg/mL (≈ 224 µM); in assay [6], 25 µg/mL (≈ 56 µM). Further, the MIC is below 0.39 µg/mL in assay [7]; below 0.39 µg/mL in assay [8]; 2.56 µg/mL (≈ 5.73 µM) in assay [9]; below 0.39 µg/mL in assay [10]; above 100 µg/mL in [11]; 25 µg/mL (≈ 56 µM) in assay [12]. In addition, the MIC was above 100 µg/mL in [13] and 1.28 µg/mL (≈ 2.87 µM) in assay [14].
`Cn1nnnc1SCC1=C(C(=O)O)N2C(=O)[C@@H](NC(=O)C(O)c3ccccc3)[C@H]2CC1` (mixture of isomers): the MIC in assay [1] was 1.56 µg/mL; in assay [2], 1.56 µg/mL; in assay [3], above 100 µg/mL; in assay [4] it was 6.25 µg/mL; in assay [5] it was 25 µg/mL; in assay [6] it was above 100 µg/mL. Moreover, the MIC was 1.56 µg/mL in assay [7]; 1.56 µg/mL in assay [8]; 6.25 µg/mL in [9]; 3.12 µg/mL in assay [10]; above 100 µg/mL in assay [11]; above 100 µg/mL in assay [12]. Besides, the MIC in assay [13] was above 100 µg/mL; in [14] it was 6.25 µg/mL.
`CO[C@@]1(NC(=O)Cc2cccs2)C(=O)N2C(C(=O)O)=C(COC(N)=O)CS[C@@H]21` [CEFOXITIN]: the MIC in assay [1] was 1.56 µg/mL (≈ 3.65 µM); in assay [2], 3.12 µg/mL (≈ 7.3 µM); in assay [3], above 100 µg/mL; in [4] it was 6.25 µg/mL (≈ 14.6 µM); in assay [5], 1.56 µg/mL (≈ 3.65 µM); in assay [6], above 100 µg/mL. The minimal inhibitory concentration (MIC) in [7] is 0.78 µg/mL (≈ 1.82 µM); in [8], 1.56 µg/mL (≈ 3.65 µM); in assay [9] it was 1.56 µg/mL (≈ 3.65 µM); in [10] it was 0.78 µg/mL (≈ 1.82 µM); in [11], above 100 µg/mL; in assay [12], above 100 µg/mL. In addition, the MIC in [13] is 25 µg/mL (≈ 58.5 µM); in [14] it was below 0.39 µg/mL.
As to `Cn1nnnc1SCC1=C(C(=O)O)N2C(=O)[C@@H](NC(=O)[C@H](O)c3ccccc3)[C@H]2SC1` [CEFAMANDOLE], the MIC is below 0.39 µg/mL in [1]; 1.56 µg/mL (≈ 3.37 µM) in assay [2]; 50 µg/mL (≈ 108 µM) in [3]; 6.25 µg/mL (≈ 13.5 µM) in assay [4]; 6.25 µg/mL (≈ 13.5 µM) in assay [5]; 50 µg/mL (≈ 108 µM) in assay [6]. Further, the MIC was below 0.39 µg/mL in [7]; below 0.39 µg/mL in [8]; 3.12 µg/mL (≈ 6.75 µM) in [9]; below 0.39 µg/mL in [10]; above 100 µg/mL in [11]; 50 µg/mL (≈ 108 µM) in assay [12]. Further, the MIC is above 100 µg/mL in assay [13] and 1.56 µg/mL (≈ 3.37 µM) in [14].
